According to ChEMBL document CHEMBL1201862, “PubChem BioAssay data set” (2004):
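Step 1: Grow cells in 96-well plates. Step 2: Expose to compound for 48 hours at 5 concentrations. Step 3: Interpolate endpoints linearly; if unreached, use highest concentration. Here, GI50 denotes the concentration required for 50% inhibition of growth.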 The source made the active and inactive calls. Cut-off read from the data, not from the text of the source: active = GI50 up to about 1.1 µM and inactive = higher.

Tests used:
Test in all cases: NCI tumour cell line growth inhibition, 48 h
SK-MEL-2 = system: SK-MEL-2
OVCAR-3 = system: OVCAR-3
U-251 = system: U-251
RPMI-8226 = system: RPMI-8226
OVCAR-8 = system: OVCAR-8
EKVX = system: EKVX
K562 = system: K562
LOX IMVI = system: LOX IMVI
SW-620 = system: SW-620
NCI-H23 = system: NCI-H23
OVCAR-4 = system: OVCAR-4
SNB-75 = system: SNB-75
TK-10 = system: TK-10
SNB-78 = system: SNB-78
SK-MEL-5 = system: SK-MEL-5
Hs-578T = system: Hs-578T
DU-145 = system: DU-145
MDA-N = system: MDA-N
MCF7 = system: MCF7
T47D = system: T47D

| SMILES | GI50 (SK-MEL-2) | GI50 (OVCAR-3) | GI50 (U-251) | GI50 (RPMI-8226) | GI50 (OVCAR-8) | GI50 (EKVX) | GI50 (K562) | GI50 (LOX IMVI) | GI50 (SW-620) | GI50 (NCI-H23) | GI50 (OVCAR-4) | GI50 (SNB-75) | GI50 (TK-10) | GI50 (SNB-78) | GI50 (SK-MEL-5) | GI50 (Hs-578T) | GI50 (DU-145) | GI50 (MDA-N) | GI50 (MCF7) | GI50 (T47D) |
| --- | --- | --- | --- | --- | --- | --- | --- | --- | --- | --- | --- | --- | --- | --- | --- | --- | --- | --- | --- | --- |
| NC(=O)C(=O)Cc1nc2ccccc2s1 | > 100 µM (inactive) | > 100 µM (inactive) | > 100 µM (inactive) | > 100 µM (inactive) | > 100 µM (inactive) | > 100 µM (inactive) | > 100 µM (inactive) | > 100 µM (inactive) | > 100 µM (inactive) | > 100 µM (inactive) | > 100 µM (inactive) | 68.2 µM (inactive) | > 100 µM (inactive) | > 100 µM (inactive) |  |  |  |  |  |  |
| O=C(CC1Sc2ccccc2NC1=O)Nc1ccc([N+](=O)[O-])cc1[N+](=O)[O-] (stereo not drawn) | 19.5 µM (inactive) | 16.3 µM (inactive) | 16 µM (inactive) | 11.3 µM (inactive) | 16.5 µM (inactive) | 32.2 µM (inactive) |  | 16.2 µM (inactive) | 18.4 µM (inactive) | 13.1 µM (inactive) | 17.2 µM (inactive) | 20 µM (inactive) | 41.3 µM (inactive) | 21.2 µM (inactive) | 15.8 µM (inactive) |  |  |  |  |  |
| CC1=N/C(=C\c2cccc3ccccc23)C(=O)O1 | > 100 µM (inactive) |  | > 100 µM (inactive) | > 100 µM (inactive) | > 100 µM (inactive) | > 100 µM (inactive) | > 100 µM (inactive) |  | > 100 µM (inactive) | > 100 µM (inactive) |  |  | > 100 µM (inactive) | > 100 µM (inactive) | > 100 µM (inactive) |  |  |  |  |  |
| CC1=C(C(=O)Nc2ccccc2C)C(c2ccc(C3C(C(=O)Nc4ccccc4C)=C(C)NC(C)=C3C(=O)Nc3ccccc3C)cc2)C(C(=O)Nc2ccccc2C)=C(C)N1 | 9.23 µM (inactive) | 6.67 µM (inactive) | 2.25 µM (inactive) | 2.51 µM (inactive) | 2.8 µM (inactive) | 7.31 µM (inactive) | 2.87 µM (inactive) | 1.63 µM (inactive) | 2.49 µM (inactive) | 3.21 µM (inactive) | 8.99 µM (inactive) | 14.4 µM (inactive) | 10.7 µM (inactive) | 4.16 µM (inactive) | 12.1 µM (inactive) | 14 µM (inactive) | 15.9 µM (inactive) | 5.6 µM (inactive) | 3.37 µM (inactive) | 4.24 µM (inactive) |
| CC1CC(=O)Nc2ccccc2N1C(=O)CN1CCC(CCCCN(C)C)CC1 (stereo not drawn) | > 100 µM (inactive) | > 100 µM (inactive) | > 100 µM (inactive) | > 100 µM (inactive) | > 100 µM (inactive) | > 100 µM (inactive) | > 100 µM (inactive) | > 100 µM (inactive) | > 100 µM (inactive) | > 100 µM (inactive) | > 100 µM (inactive) | > 100 µM (inactive) | > 100 µM (inactive) | > 100 µM (inactive) | > 100 µM (inactive) |  |  |  |  |  |
| C=C1CCC(OC(C)=O)C2(C)C(OC(C)=O)CC3OC3(C)C2C(OC(C)=O)C2C(C)C(=O)OC2C1Cl (stereo not drawn) | > 100 µM (inactive) | > 100 µM (inactive) | > 100 µM (inactive) | > 100 µM (inactive) | > 100 µM (inactive) | > 100 µM (inactive) | > 100 µM (inactive) | > 100 µM (inactive) | > 100 µM (inactive) | > 100 µM (inactive) | > 100 µM (inactive) | > 100 µM (inactive) | > 100 µM (inactive) | > 100 µM (inactive) | > 100 µM (inactive) |  |  |  |  |  |
| COc1ccc2nc3cc(Cl)ccc3c(NC(C)CCCN(CCCl)CCCl)c2c1 (stereo not drawn) | 1.1 µM (active) | 0.853 µM (active) | 0.607 µM (active) | 0.293 µM (active) | 0.169 µM (active) | 0.787 µM (active) | 0.262 µM (active) | 0.176 µM (active) | 0.116 µM (active) | 0.51 µM (active) | 0.849 µM (active) | 1.42 µM (inactive) | 1.3 µM (inactive) | 0.622 µM (active) | 1.97 µM (inactive) |  |  |  |  |  |
| COc1ccc(C(=O)C(C(=O)CC(=O)Nc2cccc(C(F)(F)F)c2)c2ccc(OC)cc2)cc1 (stereo not drawn) | > 100 µM (inactive) | > 100 µM (inactive) | > 100 µM (inactive) | > 100 µM (inactive) | > 100 µM (inactive) | > 100 µM (inactive) | > 100 µM (inactive) |  | > 100 µM (inactive) | > 100 µM (inactive) | > 100 µM (inactive) | 30.8 µM (inactive) |  | > 100 µM (inactive) | > 100 µM (inactive) |  |  |  |  |  |
| N#CC(C#N)=c1ccc(=C2N3CCCC3CN2C23CC4CC(CC(C4)C2)C3)cc1 (stereo not drawn) | > 100 µM (inactive) | > 100 µM (inactive) | > 100 µM (inactive) | > 100 µM (inactive) | > 100 µM (inactive) | > 100 µM (inactive) | > 100 µM (inactive) | > 100 µM (inactive) | > 100 µM (inactive) | > 100 µM (inactive) |  | 26.4 µM (inactive) | 76.4 µM (inactive) | > 100 µM (inactive) | > 100 µM (inactive) |  |  |  |  |  |
| C[C@]12CCC(=O)C(OC(=O)c3ccc([N+](=O)[O-])cc3)=C1CCC2=O |  | > 100 µM (inactive) | > 100 µM (inactive) | > 100 µM (inactive) | > 100 µM (inactive) | > 100 µM (inactive) |  | > 100 µM (inactive) | > 100 µM (inactive) |  | > 100 µM (inactive) | > 100 µM (inactive) | > 100 µM (inactive) | > 100 µM (inactive) | > 100 µM (inactive) |  |  |  |  |  |
